Data set [1] deals with Trypanothione reductase (Leishmania donovani) (UniProt P39050). Put plainly: Inhibition of recombinant Leishmania donovani trypanothione reductase expressed in Escherichia coli BL21 (DE3) using trypanothione disulphide as substrate at 50 uM preincubated for 5 mins followed by substrate addition by microplate reader analysis relative to control.
Data set [2] shares this target. Briefly: Inhibition of recombinant Leishmania donovani trypanothione reductase expressed in Escherichia coli BL21 (DE3) using trypanothione disulphide as substrate at 100 uM preincubated for 5 mins followed by substrate addition by microplate reader analysis relative to control.
The nature of data set [3]: Cytotoxicity against African green monkey Vero cells assessed as cell viability after 72 hrs by MTT assay. It counts as cell-based. The conditions noted are these: chlorocebus sabaeus. For orientation: Tetrazolium assays rely on reduction of a dye to a coloured formazan, in cell work by metabolically active cells.
The nature of data set [4]: (§1) Selectivity index, ratio of CC50 for African green monkey Vero cells to IC50 for amastigote stage of Leishmania donovani infected in mouse J774A.1 cells. It counts as functional.
Data set [5] concerns Leishmania donovani. Put plainly: Antileishmanial activity against amastigote stage of Leishmania donovani infected in mouse J774A.1 cells after 72 hrs by luciferase reporter gene assay. It counts as functional, organism-based. As to conditions: J774.A1, 72 h. For orientation: A reporter such as luciferase makes a cellular process visible.
Data set [6] relates to Leishmania donovani. Briefly: Antileishmanial activity against extracellular promastigote stage of Leishmania donovani after 96 hrs by luciferase reporter gene assay. It counts as functional, organism-based.
Another data set addresses Trypanothione reductase (Leishmania donovani, UniProt P39050). Briefly: Competitive inhibition of recombinant Leishmania donovani trypanothione reductase expressed in Escherichia coli BL21 (DE3) by Dixon plot analysis in presence of trypanothione disulphide.
In a further data set the test system is Vero. Described as §1. It counts as functional.

pIC50, pKi: −log10 of the molar value. Activity calls are given as the source filed them. The calls are words filed in the database; no cut-off is given here.

Chain of Trypanothione reductase (P39050 whole entry): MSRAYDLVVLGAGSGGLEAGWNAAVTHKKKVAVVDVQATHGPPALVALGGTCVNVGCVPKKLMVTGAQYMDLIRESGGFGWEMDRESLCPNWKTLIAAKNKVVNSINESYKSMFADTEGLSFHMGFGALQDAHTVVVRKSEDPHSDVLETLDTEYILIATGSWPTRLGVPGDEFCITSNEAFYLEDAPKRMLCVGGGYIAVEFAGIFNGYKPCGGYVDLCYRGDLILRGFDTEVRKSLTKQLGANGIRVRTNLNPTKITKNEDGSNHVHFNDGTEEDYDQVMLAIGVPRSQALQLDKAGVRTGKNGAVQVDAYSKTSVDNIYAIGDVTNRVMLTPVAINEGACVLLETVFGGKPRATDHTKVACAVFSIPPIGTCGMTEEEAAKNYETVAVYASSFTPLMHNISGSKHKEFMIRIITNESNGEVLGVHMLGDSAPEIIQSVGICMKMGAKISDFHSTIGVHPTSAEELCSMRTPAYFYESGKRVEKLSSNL
Chain of Trypanothione reductase (Leishmania donovani) (P39050 whole entry): as above

One may read the inhibition as the percentage by which the read-out fell short of the control. For the compound `COC(=O)c1cc2c([nH]c3ccccc32)c(C2Nc3ccccc3C(=O)N2C2CCCCCC2)n1` (stereo unspecified), the inhibition result in data set [1] and in data set [2] was “inactive” throughout.
As for `COC(=O)c1cc2c([nH]c3ccccc32)c(C2Nc3ccccc3C(=O)N2Cc2ccccc2)n1` (stereo unspecified), the inhibition is 6% in data set [1] and 11% in data set [2].
In the case of `CCCN1C(=O)c2ccccc2NC1c1nc(C(=O)OC)cc2c1[nH]c1ccccc12` (stereo unspecified), the inhibition came to 7% in data set [1] and 9% in data set [2].
On to `COC(=O)c1cc2c([nH]c3ccccc32)c(C2Nc3ccccc3C(=O)N2C2CCCCC2)n1` (stereo unspecified), for which, in data set [1], the inhibition result is “inactive”. Besides, the inhibition in data set [2] amounted to 1%.
The term CC50 denotes the concentration giving 50% cytotoxicity. In general, pIC50 refers to −log10 of the IC50, conventionally taken in molar units. Take `CCCCCCCCCCCCCCCCOP(=O)([O-])OCC[N+](C)(C)C` [MILTEFOSINE]: in data set [3], the CC50 at 72 h was 56.5 µM. Besides, the “Ratio CC50/IC50” value in data set [4] is 7. The pIC50 with Leishmania donovani [5] was 5.09; in the data set with Leishmania donovani [6], 5.92.
In general, pKi refers to the negative decadic logarithm of the Ki, by convention in mol/L. `COC(=O)c1cc2c([nH]c3ccccc32)c(C2Nc3ccccc3C(=O)N2c2ccc(Cl)cc2)n1` (stereo unspecified): the 50% cytotoxic concentration (CC50) at 72 h in data set [3] was above 400 µM. In data set [4], the “Ratio CC50/IC50” value is above 91. Besides, the pIC50 was 5.36 in the data set with Leishmania donovani [5] and 5.48 in the data set on Leishmania donovani [6]. Moreover, the inhibition was 64% in data set [1] and 67% in data set [2]. Also, the negative-log Ki (pKi) on Trypanothione reductase is 5.14.
In the case of `CCN1C(=O)c2ccccc2NC1c1nc(C(=O)OC)cc2c1[nH]c1ccccc12` (stereo unspecified), the negative-log IC50 (pIC50) in the data set on Leishmania donovani [5] was below 4.40; with Leishmania donovani [6], 5.07. The inhibition in data set [1] turned out to be 58%; in data set [2], 75%. Also, the pKi at Trypanothione reductase was 5.19.
In the case of `COC(=O)c1cc2c([nH]c3ccccc32)c(C2Nc3ccccc3C(=O)N2c2ccc(OC)cc2)n1` (stereo unspecified), the inhibition entry in data set [1] and in data set [2] was “inactive” in each case.
Regarding `COC(=O)c1cc2c([nH]c3ccccc32)c(C2Nc3ccccc3C(=O)N2C2CCCC2)n1` (stereo unspecified), the inhibition in data set [1] was found to be 20%; in data set [2], 30%.
For the compound `COC(=O)c1cc2c([nH]c3ccccc32)c(C2Nc3ccccc3C(=O)N2c2ccc(F)cc2)n1` (stereo unspecified), in data set [3], the CC50 at 72 h was found to be 217 µM. The “Ratio CC50/IC50” value in data set [4] turned out to be 36. Besides, the pIC50 with Leishmania donovani [5] was 5.22; with Leishmania donovani [6], 5.34. The inhibition was determined as 81% in data set [1] and 96% in data set [2]. Moreover, the pKi on Trypanothione reductase was 5.41.
For `CCCCN1C(=O)c2ccccc2NC1c1nc(C(=O)OC)cc2c1[nH]c1ccccc12` (stereo unspecified), the inhibition stood at 28% in data set [1] and 35% in data set [2].
Regarding `COC(=O)c1cc2c([nH]c3ccccc32)c(C2Nc3ccccc3C(=O)N2C2CC2)n1` (stereo unspecified), the inhibition entry in data set [1] and in data set [2] was “inactive” in each case.
As to `COC(=O)c1cc2c([nH]c3ccccc32)c(C2Nc3ccccc3C(=O)N2Cc2ccc(Cl)c(Cl)c2)n1` (stereo unspecified), the CC50 at 72 h in data set [3] worked out at 104 µM. Also, the “Ratio CC50/IC50” value in data set [4] came to 24. The pIC50 with Leishmania donovani [5] is 5.37; with Leishmania donovani [6], 5.32. In addition, the results for the inhibition in data set [1] and in data set [2] were 77% and 85%, respectively. Besides, the negative-log Ki (pKi) at Trypanothione reductase is 5.43.
For the compound `COC(=O)c1cc2c([nH]c3ccccc32)c(C2Nc3ccccc3C(=O)N2c2ccccc2)n1` (stereo unspecified), the inhibition in data set [1] was found to be 16%; in data set [2], 18%.
For the compound `COC(=O)c1cc2c([nH]c3ccccc32)c(C2Nc3ccccc3C(=O)N2Cc2ccc(OC)cc2)n1` (stereo unspecified), the CC50 at 72 h in data set [3] came out at 106 µM. Besides, the “Ratio CC50/IC50” value in data set [4] is listed as 3. The negative-log IC50 (pIC50) in the data set with Leishmania donovani [5] is 4.45; in the data set with Leishmania donovani [6] it was 5.27. Also, the inhibition in data set [1] is 56%; in data set [2], 60%. In addition, the pKi at Trypanothione reductase is 5.04.
As for `CCCCCN1C(=O)c2ccccc2NC1c1nc(C(=O)OC)cc2c1[nH]c1ccccc12` (stereo unspecified), the figures for the negative logarithm of the IC50 (pIC50) in the data set with Leishmania donovani [5] and in the data set with Leishmania donovani [6] were below 4.40 and 5.00, respectively. For the same compound, the values for the inhibition in data set [1] and in data set [2] were 90% and 99%, respectively. For the same compound, at Trypanothione reductase, the pKi was 6.10.
Take sodium stibogluconate: the Ratio CC50/IC50 with Vero was determined as 7.
